Measured values reported in PubChem BioAssay AID248 (DTP/NCI, 2004).
Values joined by “and” are separate entries in the source; they are usually repeats but may differ in a detail not shown here. Equal entries are not always repeated. Inconclusive results and toxic doses are left out. Rule as the data show it: active = T/C of 150% or more; inactive = T/C below 125%.

System: L1210 leukemia ip in BDF1 mice, survival T/C
Assay: NCI In Vivo Anticancer Drug Screen. Data for tumor model L1210 Leukemia (intraperitoneal) in B6D2F1 (BDF1) mice
Conditions: endpoint: mean survival time, higher = longer survival
Method in brief: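 Survival endpoint. Drug-treated group vs vehicle group, expressed as T divided by C. Tumor passaged by transplantation.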

[1] = dose: 100.0 mg/kg/injection, schedule: Q01DX001 (ip), vehicle: saline
[2] = dose: 200.0 mg/kg/injection, schedule: Q01DX001 (ip), vehicle: saline
[3] = dose: 400.0 mg/kg/injection, schedule: Q01DX001 (ip), vehicle: saline
[4] = dose: 100.0 mg/kg/injection, schedule: Q04DX003 (ip), vehicle: saline
[5] = dose: 200.0 mg/kg/injection, schedule: Q04DX003 (ip), vehicle: saline
[6] = dose: 100.0 mg/kg/injection, schedule: Q04DX002 (ip), vehicle: Klucel (hydroxypropylcellulose) (HPC)
[7] = dose: 200.0 mg/kg/injection, schedule: Q04DX002 (ip), vehicle: Klucel (hydroxypropylcellulose) (HPC)
[8] = dose: 100.0 mg/kg/injection, schedule: Q01DX009 (ip), vehicle: Klucel (hydroxypropylcellulose) (HPC)
[9] = dose: 200.0 mg/kg/injection, schedule: Q01DX009 (ip), vehicle: Klucel (hydroxypropylcellulose) (HPC)
[10] = dose: 400.0 mg/kg/injection, schedule: Q01DX009 (ip), vehicle: Klucel (hydroxypropylcellulose) (HPC)
[11] = dose: 400.0 mg/kg/injection, schedule: Q04DX002 (ip), vehicle: Klucel (hydroxypropylcellulose) (HPC)
[12] = dose: 100.0 mg/kg/injection, schedule: Q01DX009 (ip), vehicle: saline with Tween-80
[13] = dose: 100.0 mg/kg/injection, schedule: Q04DX002 (ip), vehicle: saline
[14] = dose: 100.0 mg/kg/injection, schedule: Q04DX003 (ip), vehicle: saline with Tween-80
[15] = dose: 200.0 mg/kg/injection, schedule: Q04DX002 (ip), vehicle: saline
[16] = dose: 200.0 mg/kg/injection, schedule: Q04DX003 (ip), vehicle: saline with Tween-80
[17] = dose: 400.0 mg/kg/injection, schedule: Q04DX003 (ip), vehicle: saline with Tween-80
[18] = dose: 100.0 mg/kg/injection, schedule: Q01DX001 (ip), vehicle: carboxymethylcellulose (CMC)
[19] = dose: 200.0 mg/kg/injection, schedule: Q01DX001 (ip), vehicle: carboxymethylcellulose (CMC)

Measured: T/C

CC(C)(C)NC(=O)Nc1cccc2c(O)cccc12
inactive: dose: 100.0 mg/kg/injection, schedule: Q04DX002 (ip), vehicle: saline with Tween-80 95 % of control | dose: 200.0 mg/kg/injection, schedule: Q04DX002 (ip), vehicle: saline with Tween-80 95 % of control | dose: 400.0 mg/kg/injection, schedule: Q04DX002 (ip), vehicle: saline with Tween-80 98 % of control

O=c1cc(O)c2c(O)cc(O)cc2o1
inactive: [1] 96 % of control | [2] 96 % of control | [3] 88 % of control

Nc1nc(=O)[nH]c(N)c1N
inactive: dose: 50.0 mg/kg/injection, schedule: Q04DX003 (ip), vehicle: saline 91 % of control | [1] 98 % of control | [4] 91 % of control | [2] 114 % of control | [5] 88 % of control

O=c1[nH]c2ccccc2nc1C(Cl)(Cl)Cl
inactive: [6] 112 % of control | [7] 105 % of control

Cc1cc(Cl)cc2sc(=S)[nH]c12
inactive: [8] 96 % of control and 108 % of control | [6] 110 % of control | [9] 86 % of control and 92 % of control | [7] 110 % of control | [10] 87 % of control | [11] 110 % of control

c1ccc(-n2nnnc2-c2nnnn2-c2ccccc2)cc1
inactive: [1] 98 % of control | [2] 98 % of control | [3] 101 % of control

CC(C)(C)C(=O)CC(=O)C(C)(C)C
inactive: [1] 101 % of control | dose: 100.0 mg/kg/injection, schedule: Q01DX009 (ip), vehicle: other 92 % of control | [12] 91 % of control | dose: 100.0 mg/kg/injection, schedule: Q04DX002 (ip), vehicle: other 102 % of control | [13] 116 % of control | [14] 103 % of control | [4] 98 % of control | [2] 110 % of control | dose: 200.0 mg/kg/injection, schedule: Q01DX009 (ip), vehicle: other 97 % of control | dose: 200.0 mg/kg/injection, schedule: Q01DX009 (ip), vehicle: saline with Tween-80 97 % of control | dose: 200.0 mg/kg/injection, schedule: Q04DX002 (ip), vehicle: other 97 % of control | [15] 101 % of control | [16] 103 % of control | [5] 103 % of control | [3] 102 % of control | dose: 400.0 mg/kg/injection, schedule: Q01DX009 (ip), vehicle: other 97 % of control | dose: 400.0 mg/kg/injection, schedule: Q01DX009 (ip), vehicle: saline with Tween-80 91 % of control | dose: 400.0 mg/kg/injection, schedule: Q04DX002 (ip), vehicle: other 102 % of control | dose: 400.0 mg/kg/injection, schedule: Q04DX002 (ip), vehicle: saline 108 % of control | dose: 400.0 mg/kg/injection, schedule: Q04DX003 (ip), vehicle: saline 95 % of control

CC(=O)Nc1c(Cl)cc2c(c1Cl)Cc1cc(N=Cc3ccc4c(c3)OCO4)ccc1-2
inactive: dose: 100.0 mg/kg/injection, schedule: Q01DX001 (ip), vehicle: other 91 % of control | dose: 200.0 mg/kg/injection, schedule: Q01DX001 (ip), vehicle: other 101 % of control | dose: 400.0 mg/kg/injection, schedule: Q01DX001 (ip), vehicle: other 100 % of control

CCc1nc(NS(=O)(=O)c2ccc(N)cc2)nc(-c2ccccc2)c1-c1ccccc1O
inactive: [6] 87 % of control | [7] 91 % of control | [11] 95 % of control

CC(=O)c1c(C)[nH]c2ccccc12
inactive: dose: 100.0 mg/kg/injection, schedule: Q01DX001 (ip), vehicle: saline with Tween-80 101 % of control | [14] 95 % of control | dose: 200.0 mg/kg/injection, schedule: Q01DX001 (ip), vehicle: saline with Tween-80 103 % of control | [16] 95 % of control | dose: 400.0 mg/kg/injection, schedule: Q01DX001 (ip), vehicle: saline with Tween-80 97 % of control | [17] 95 % of control

c1ccc2c(c1)OCCOCCOCCOCCO2
inactive: dose: 6.25 mg/kg/injection, schedule: Q04DX002 (ip), vehicle: saline 89 % of control | dose: 12.5 mg/kg/injection, schedule: Q04DX002 (ip), vehicle: saline 103 % of control | dose: 25.0 mg/kg/injection, schedule: Q04DX002 (ip), vehicle: saline 113 % of control | dose: 50.0 mg/kg/injection, schedule: Q04DX002 (ip), vehicle: saline 94 % of control

c1cn[nH]c1
inactive: dose: 50.0 mg/kg/injection, schedule: Q01DX001 (ip), vehicle: carboxymethylcellulose (CMC) 96 % of control | [18] 100 % of control | [19] 96 % of control

COC1OC(COC(=O)OCC(Cl)(Cl)Cl)C(OC(=O)OCC(Cl)(Cl)Cl)C(OC(=O)OCC(Cl)(Cl)Cl)C1OC(=O)OCC(Cl)(Cl)Cl (stereo not drawn)
inactive: dose: 75.0 mg/kg/injection, schedule: Q01DX001 (ip), vehicle: other 90 % of control | dose: 150.0 mg/kg/injection, schedule: Q01DX001 (ip), vehicle: other 92 % of control | dose: 300.0 mg/kg/injection, schedule: Q01DX001 (ip), vehicle: other 90 % of control

CCCCCCCCCCS
inactive: [18] 114 % of control | [19] 101 % of control

COC(=O)c1cc(=O)c2c(=O)n(Cc3ccccc3)c(=O)n(Cc3ccccc3)c2[nH]1
inactive: dose: 100.0 mg/kg/injection, schedule: Q01DX001 (ip), vehicle: Klucel (hydroxypropylcellulose) (HPC) 106 % of control | dose: 200.0 mg/kg/injection, schedule: Q01DX001 (ip), vehicle: Klucel (hydroxypropylcellulose) (HPC) 100 % of control | dose: 400.0 mg/kg/injection, schedule: Q01DX001 (ip), vehicle: Klucel (hydroxypropylcellulose) (HPC) 118 % of control

CCOC(c1ccccc1)(c1ccccc1)c1ccccc1
inactive: [14] 101 % of control | [16] 90 % of control | [17] 91 % of control

CCNC(C)(C)C(S)c1ccc(Cl)s1 (stereo not drawn)
inactive: dose: 50.0 mg/kg/injection, schedule: Q01DX009 (ip), vehicle: saline with Tween-80 106 % of control | [12] 114 % of control | [14] 103 % of control | [16] 94 % of control

CCOC(=O)C(C)Oc1ccc([N+](=O)[O-])cc1Cl (stereo not drawn)
inactive: dose: 100.0 mg/kg/injection, schedule: Q01DX009 (ip), vehicle: gum acacia 94 % of control | dose: 200.0 mg/kg/injection, schedule: Q01DX009 (ip), vehicle: gum acacia 99 % of control | dose: 400.0 mg/kg/injection, schedule: Q01DX009 (ip), vehicle: gum acacia 99 % of control

Cc1ccnc(/C=N/NC(N)=S)c1
inactive: [13] 108 % of control | [15] 86 % of control

CSc1nc(C)c(NC(C)=O)c(=O)[nH]1
inactive: dose: 50.0 mg/kg/injection, schedule: Q01DX001 (ip), vehicle: saline 98 % of control | [1] 101 % of control | [2] 98 % of control | [3] 104 % of control

COc1ccc(C2C(=O)c3ccc(OC)c(OC)c3C2=O)cc1OC (stereo not drawn)
inactive: [1] 94 % of control | [2] 89 % of control

Cc1cccc(NC(=O)COc2ccc(Cl)cc2)c1C
inactive: [8] 97 % of control | dose: 100.0 mg/kg/injection, schedule: Q04DX003 (ip), vehicle: Klucel (hydroxypropylcellulose) (HPC) 92 % of control | [9] 94 % of control | dose: 200.0 mg/kg/injection, schedule: Q04DX003 (ip), vehicle: Klucel (hydroxypropylcellulose) (HPC) 95 % of control | [10] 97 % of control | dose: 400.0 mg/kg/injection, schedule: Q04DX003 (ip), vehicle: Klucel (hydroxypropylcellulose) (HPC) 96 % of control

COc1ccc(CC(=S)N2CCOCC2)cc1
inactive: [8] 104 % of control | [6] 98 % of control | [9] 102 % of control | [7] 95 % of control | [10] 96 % of control
